Source: patent US8592406B2, “Transnasal anticonvulsive pharmaceutical composition comprising poorly soluble anticonvulsant” (SK Biopharmaceuticals Co., Ltd., priority 2008, dated 2013)

Experiments:
[1] = Pharmacokinetic test of lorazepam-containing nasal formulation in rabbit (bioavailability test); settings: plasma, other: transnasal, 1.6 mg/kg
Protocol: Right before this experiment, rabbits (n=3) were weighed, and a mixed solution including 25 mg of ketamine and 4 mg of xylazine was intramuscularly injected to the rabbits per kilogram (Kg) in order to anesthetize the rabbits, and a catheter was fastened to each rabbit to collect blood from rabbits' otic artery. An intravenous injection was performed by administering the mixed solution to the rabbits via the rabbits' otic artery at a dose of 1 mg/kg for approximately 20 seconds. […] Then, each formulation was sprayed to the rabbits using a Pfeiffer nasal spry system.
Blood samples (1 Ml) were collected from the rabbits' otic artery at 0, 2, 5, 10, 20, 30, 45, 60 and 120 minutes after the intravenous injection and transnasal administration of each formulation. Each of the blood samples was centrifuged to separate rabbit plasma, which was stored at −20° C. until is will be used for analysis. In order to analyze the plasma samples, each of the plasma samples (0.5 Ml) was exactly transferred to a 1.5 Ml polypropylene centrifuge tube. […]
In this case, the lorazepam was set to a concentration of 9%, and was administered at a dose of 1.6 mg/kg. […] Each plasma sample pre-treated with acetonitrile was quantified under the following LC/MS/MS conditions. […] The ionization was analyzed in a positive mode using an electrospray ionization (ESI) method, and the ion spray temperature was set to 500° C.

[2] = humans, transnasal, Cremophor EL vehicle; cited from earlier work

SMILES | bioavailability [1] | Peak concentration versus intravenous administration [2]
O=C1Nc2ccc(Cl)cc2C(c2ccccc2Cl)=NC1O (centres unmarked) [lorazepam] | 35% | 
CN1C(=O)CN=C(c2ccccc2)c2cc(Cl)ccc21 [diazepam] |  | lower than that observed after the intravenous administration
